The target of one test is T1, MMP-2 (Homo sapiens, UniProt P08253).
T1 sequence (P08253 110-660): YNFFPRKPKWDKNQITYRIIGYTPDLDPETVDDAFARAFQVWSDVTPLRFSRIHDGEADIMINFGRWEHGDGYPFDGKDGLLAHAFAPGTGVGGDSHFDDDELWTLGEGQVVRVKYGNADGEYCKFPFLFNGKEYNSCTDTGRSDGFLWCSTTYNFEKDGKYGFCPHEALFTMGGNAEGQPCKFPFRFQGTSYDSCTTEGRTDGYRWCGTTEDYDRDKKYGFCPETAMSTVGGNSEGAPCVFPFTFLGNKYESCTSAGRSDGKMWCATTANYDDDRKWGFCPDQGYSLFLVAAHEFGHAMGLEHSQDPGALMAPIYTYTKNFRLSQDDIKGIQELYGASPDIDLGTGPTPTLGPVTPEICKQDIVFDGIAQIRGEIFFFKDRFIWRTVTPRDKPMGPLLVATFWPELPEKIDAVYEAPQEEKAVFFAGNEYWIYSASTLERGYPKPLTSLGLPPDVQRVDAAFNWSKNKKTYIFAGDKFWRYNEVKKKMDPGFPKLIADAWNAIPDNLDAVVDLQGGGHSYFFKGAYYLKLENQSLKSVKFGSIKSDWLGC
Particulars: in vitro; cited from earlier work.

The target in a further test is MMP-3 (Homo sapiens, UniProt P08254). Particulars: in vitro; cited from earlier work.
The next test deals with MMP-9 (Homo sapiens, UniProt P14780). Particulars: in vitro; cited from earlier work.
In another test the target is T2, MMP-1 (Homo sapiens, UniProt P03956).
T2 sequence (P03956 100-469): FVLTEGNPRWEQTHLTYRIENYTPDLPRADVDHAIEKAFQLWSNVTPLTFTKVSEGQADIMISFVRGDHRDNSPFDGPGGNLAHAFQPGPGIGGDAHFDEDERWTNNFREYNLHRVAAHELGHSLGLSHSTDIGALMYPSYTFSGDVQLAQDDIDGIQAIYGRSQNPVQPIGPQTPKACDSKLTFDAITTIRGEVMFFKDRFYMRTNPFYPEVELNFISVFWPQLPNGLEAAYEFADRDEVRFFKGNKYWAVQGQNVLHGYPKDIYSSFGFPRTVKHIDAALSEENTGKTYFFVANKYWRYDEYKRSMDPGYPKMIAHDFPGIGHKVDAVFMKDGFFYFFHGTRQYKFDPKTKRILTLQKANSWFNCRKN
Particulars: in vitro; cited from earlier work.

Test [1] deals with HRS/J hairless mice skin exposed to UV irradiation. Nature of the test: UV irradiation sunburn/scarring in hairless mice, topical treatment, skin cross-section histology. It is filed as in vivo, mouse. Particulars: UV 200-400 mJ/square cm, topical 1% MMI270 in 70% ethanol (95%) and 30% propylene glycol daily after UV exposure, compared to untreated irradiated skin (FIG. 2). How it is done: The following experiments illustrate embodiments of the present technology. Experimental mice (HRS/J hairless mice) are treated with UV irradiation at a dosage that results in sunburn and consequent scarring of the skin. UV exposure includes daily exposure (Mon-Fri), or 3× per week (Mon, Wed, Fri), at 200-400 mJ/square cm, until scarring occurs, typically after 2-3 weeks. The UVB/A2 source is FS tubes filtered with Kodacel to remove wavelengths below 290 nm. Non-irradiated mice serve as non-wounded controls.
FIG. 1 is a photograph of a tissue cross-section of non-irradiated mouse skin. The outer surface of the skin includes a layer 110 of dead skin cells overtop the epidermis 120. Located beneath the epidermis 120, is a region comprising extracellular matrix 130, which includes collagen and other proteins. A layer of fat cells 140 underlies the extracellular matrix 130 and is followed by muscle 150. Hair follicles 160 can be seen embedded within the extracellular matrix 130 region.
FIG. 2 is a photograph of a tissue cross-section of mouse skin that was exposed to UV irradiation to cause a burn and that was not treated with MMP inhibitor. Morphology of the skin changes in response to the burn wound which can subsequently form into a scar. The outer skin surface and layer 210 of dead skin cells overlies a thickened epidermis 220 followed by a thickened region of extracellular matrix 230. […]

“Also recorded” adds a separate entry of the source.

Sequence of MMP-9 (P14780 94-707, species assumed): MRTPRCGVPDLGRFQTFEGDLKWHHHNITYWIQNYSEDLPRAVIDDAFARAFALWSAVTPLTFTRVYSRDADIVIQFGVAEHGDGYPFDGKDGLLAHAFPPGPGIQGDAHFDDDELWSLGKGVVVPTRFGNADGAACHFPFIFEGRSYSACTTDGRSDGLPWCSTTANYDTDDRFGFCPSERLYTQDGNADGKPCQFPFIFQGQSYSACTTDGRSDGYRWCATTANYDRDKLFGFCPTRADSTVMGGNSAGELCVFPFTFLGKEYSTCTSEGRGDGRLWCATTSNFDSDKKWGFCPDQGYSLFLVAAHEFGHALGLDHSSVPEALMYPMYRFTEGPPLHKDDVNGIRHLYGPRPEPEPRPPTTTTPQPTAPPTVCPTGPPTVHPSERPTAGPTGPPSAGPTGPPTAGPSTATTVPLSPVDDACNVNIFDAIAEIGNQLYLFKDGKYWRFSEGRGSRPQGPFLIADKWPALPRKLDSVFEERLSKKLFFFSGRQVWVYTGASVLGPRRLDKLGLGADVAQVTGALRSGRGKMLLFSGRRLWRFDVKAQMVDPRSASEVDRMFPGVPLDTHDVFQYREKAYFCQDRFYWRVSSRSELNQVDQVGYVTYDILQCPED
Sequence of MMP-3 (P08254 100-477, species assumed): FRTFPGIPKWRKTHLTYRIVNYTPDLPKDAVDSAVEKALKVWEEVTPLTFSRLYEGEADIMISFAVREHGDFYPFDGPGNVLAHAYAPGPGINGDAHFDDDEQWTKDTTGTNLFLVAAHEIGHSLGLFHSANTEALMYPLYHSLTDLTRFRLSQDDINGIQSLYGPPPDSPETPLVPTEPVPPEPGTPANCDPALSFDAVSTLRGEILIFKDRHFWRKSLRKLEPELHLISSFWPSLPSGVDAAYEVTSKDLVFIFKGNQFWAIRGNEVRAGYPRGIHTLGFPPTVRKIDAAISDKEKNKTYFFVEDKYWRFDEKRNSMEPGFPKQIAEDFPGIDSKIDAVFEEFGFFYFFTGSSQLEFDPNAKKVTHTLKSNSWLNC

With `COc1ccc(S(=O)(=O)N(Cc2cccnc2)[C@@H](C(=O)NO)C(C)C)cc1` [MMI270, N-hydroxy-2(R)-[[4-methoxybenzenesulfonyl]-(3-picolyl)amino]-3-methylbutanamide], the “concentration inhibiting MMP-2 activity” value on MMP-2 is “nanomolar concentrations”. Besides, on MMP-3, the “concentration inhibiting MMP-3 activity” value is given as “nanomolar concentrations”. The “concentration inhibiting MMP-9 activity” value at MMP-9 was “nanomolar concentrations”. For the same compound, at MMP-1, the “concentration inhibiting MMP-1 activity” value is listed as “nanomolar concentrations”. For the same compound, in test [1], the “expansion and thickening of the epidermis and extracellular matrix” value is “less expansion and thickening of the epidermis and extracellular matrix; also recorded: decrease in thickness of the extracellular matrix”.

Values taken from patent publication US20100178259A1, “REDUCING FIBROSIS USING MATRIX METALLOPROTEINASE INHIBITORS” (The Regents of The University of Michigan, priority 2009, published 2010).
